Data on six compounds can be found in publication PMC3853373 (Archives of biochemistry and biophysics, 2013).

Molecules are shown by their SMILES. Several values for one entry are separate records, joined by “and”; a condition that tells them apart may be missing. Equal entries are not always repeated. Where two headings read alike, the source gives them in different places.

The target in experiment [1] is T1, human PNMT (hPNMT) (Homo sapiens, UniProt P11086).
T1 sequence (P11086 1-282): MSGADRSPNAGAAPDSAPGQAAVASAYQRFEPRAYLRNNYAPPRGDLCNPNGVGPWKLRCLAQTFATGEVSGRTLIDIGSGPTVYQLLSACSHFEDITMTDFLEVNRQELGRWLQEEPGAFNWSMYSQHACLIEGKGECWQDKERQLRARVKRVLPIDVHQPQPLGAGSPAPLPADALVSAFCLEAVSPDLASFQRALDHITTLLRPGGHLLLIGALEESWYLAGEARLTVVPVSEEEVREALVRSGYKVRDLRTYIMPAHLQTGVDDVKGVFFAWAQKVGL
Nature of the experiment: Determination of inhibition constants and inhibition patterns for hPNMT. Format: biochemical. Particulars: pH 8.0, 30 °C; for Ki: read-out: Kis.

For experiment [2], the target named is T1, human PNMT (hPNMT). Nature of the experiment: Isothermal titration calorimetry of ligand binding to hPNMT. The following applies: for binding to free hPNMT: no AdoMet or AdoHcy present.
Experiment [3] deals with T1, human PNMT (hPNMT). Nature of the experiment: pH dependence of hPNMT kinetic parameters and of Ki for SK&F 29661. Particulars: pH 6-10, 30 °C; fit to eq 6.
Experiment [4] deals with T1, human PNMT (hPNMT). Particulars: pH 8.0, 30 °C; ref [30]; cited from earlier work.
The target in experiment [5] is T1, human PNMT (hPNMT). Nature of the experiment: hPNMT initial velocity studies. Format: biochemical.
Setting [6] is: varied substrate AdoMet, fixed PEA 100 μM.
Where [7] appears, read: varied substrate PEA, fixed AdoMet 5 μM.

With `Nc1ncnc2c1ncn2[C@@H]1O[C@H](CSCC[C@H](N)C(=O)O)[C@@H](O)[C@H]1O` [AdoHcy, S-adenosyl-L-homocysteine], the Ki at human PNMT (hPNMT) [1] (setting [6]) worked out at 0.8 ± 0.04 µM. Also, at human PNMT (hPNMT) [1] (setting [7]), the Ki is 2.5 ± 0.28 µM and the Kii came out at 1.0 ± 0.02 µM.
As a reminder, the Kd is the constant that tells how readily two partners part at equilibrium. A high value points to weaker binding. `NC[C@H](O)c1ccc(O)c(O)c1` [NE, norepinephrine] returned a Kd at human PNMT (hPNMT) [2] of 7.2 ± 0.2 µM. For the same compound, the “binding to free hPNMT” value on human PNMT (hPNMT) [2] (ITC) is “did not bind”.
A word on the kcat: it is the number of substrate molecules converted per active site and unit of time at saturation. As for `NCC(O)c1ccccc1` (stereo not drawn) [PEA, phenylethanolamine], on human PNMT (hPNMT) [3], the “pKa2 from LogV/K pH profile” value is 8.66 and 8.66 ± 0.03; the “pKa3 from LogV/K pH profile” value was 9.26 and 9.26 ± 0.03. Further, at human PNMT (hPNMT) [2], the Kd was found to be 60 ± 2 µM. The “binding to free hPNMT” value on human PNMT (hPNMT) [2] (ITC) is reported as “did not bind”. On human PNMT (hPNMT) [4], the kcat was 0.0473 ± 0.00167 s⁻¹ and the kcat/Ka result is on record as “(2.8 ± 0.2) × 10^4 M^−1 min^−1”.
On to `NCC(O)c1ccc(O)cc1` (stereo not drawn) [Octopamine, octopamine], for which the Kd on human PNMT (hPNMT) [2] turned out to be 3.3 ± 0.1 µM. Further, the “binding to free hPNMT” value on human PNMT (hPNMT) [2] (ITC) was “did not bind”. In addition, at human PNMT (hPNMT) [5] (dissociation constant from eq 1, phosphate buffer pH 8.0, 30 °C), the Kia was 2.1 ± 0.2 µM. Moreover, the “Km lower than that of PEA” value at human PNMT (hPNMT) [5] (ratio of Km values against PEA) amounted to 20 fold.
As for `CNC[C@H](O)c1ccc(O)c(O)c1` [Epinephrine, epinephrine], at human PNMT (hPNMT) [2] (ITC), the “preference for binding in presence of AdoHcy over AdoMet” value turned out to be 5 fold. For the same compound, the Kii on human PNMT (hPNMT) [1] (setting [6]) is 22 ± 0.8 µM; on human PNMT (hPNMT) [1] (setting [7]), 51 ± 1.0 µM.
In the case of `C[S+](CC[C@H](N)C(=O)[O-])C[C@H]1O[C@@H](n2cnc3c(N)ncnc32)[C@H](O)[C@@H]1O` (stereo partly drawn) [AdoMet, S-adenosyl-L-methionine], on human PNMT (hPNMT) [3], the “pKa2 from LogV/K pH profile” value was 7.25 and the “pKa3 from LogV/K pH profile” value is reported as 9.15 ± 0.12. The compound further showed a Kd on human PNMT (hPNMT) [2] of 4.6 ± 0.7 µM.
